Experimental data published in patent US12331052B2, “Organic compounds” (INTRA-CELLULAR THERAPIES, INC., priority 2018, dated 2025).
Where “and” joins values, the source holds several entries; their conditions need not be identical. Equal entries are not always repeated. Where two headings read alike, the source gives them in different places.

Assays:
male C57BL/6J mice = conditions: mouse, in vivo
5-HT2A = 5-HT2A (Homo sapiens, UniProt P28223); experiment: biochemical; format: binding; conditions: read-out: maximum inhibition
D2 = D2 (Homo sapiens, UniProt P14416); experiment: Receptor binding, D2; conditions: @ 100 nM; read-out: maximum inhibition
D1 = D1 (Homo sapiens, UniProt P21728); experiment: Receptor binding, D1; conditions: @ 100 nM; read-out: maximum inhibition
SERT = SERT (Homo sapiens, UniProt P31645); experiment: biochemical; format: binding; conditions: read-out: maximum inhibition
rats [1] = conditions: for Motility Ratio: 30 minutes prior to charcoal bolus
[2] = test system: tyrosine hydroxylase phosphorylation at Ser40; experiment: CNS phosphoprotein profile, nucleus accumbens: TH; format: in vivo, mice; conditions: for increase in TH phosphorylation: mice nucleus accumbens, haloperidol 2 mg/kg, relative to vehicle-treated control
Method: (§1) A comprehensive molecular phosphorylation study is also carried out to examine the central nervous system (CNS) profile of the compound of Example 1. The extent of protein phosphorylation for selected key central nervous system proteins is measured in mice nucleus accumbens.
(§2) Mice were killed 30 minutes to 2 hours post-injection by focused microwave cranial irradiation, which preserves brain phosphoprotein as it exists at the time of death. Nucleus accumbens was then dissected from each mouse brain, sliced and frozen in liquid nitrogen. Samples were further prepared for phosphoprotein analysis via SDS-PAGE electrophoresis followed by phosphoprotein-specific immunoblotting, as described in Zhu H, et al., Brain Res. 2010 Jun. 25; 1342:11-23. Phosphorylation at each site was quantified, normalized to total levels of the protein (non-phosphorylated), and expressed as percent of the level of phosphorylation in vehicle-treated control mice.

[3] = test system: NR2B phosphorylation at Tyr1472; experiment: CNS phosphoprotein profile, nucleus accumbens: NR2B; format: in vivo, mice; conditions: 3 mg/kg; at 30-60 minutes
Method: as §1, §2

mice = experiment: Mouse marble-burying study (OCD model); format: in vivo; conditions: 0.3 mg/kg orally 30 minutes prior, of 15 marbles
Excerpt: The marble burying test is used to measure repetitive and anxiety-related behavior in rodents. It is based on the observation that rats and mice will bury either harmful or harmless objects in their bedding, and it has been used as an animal model to measure the effect of pharmacological interventions in treatment of repetitive behavior disorders, such as OCD.
MPEP is a selective mGluR5 glutamate receptor antagonist. […] Mice in groups (1) are orally administered the vehicle, and mice in group (4) are given an intraperitoneal injection of MPEP just prior to the start of the test.
The test is conducted in rectangular cages with 4-5 cm of wood chip bedding in a room with the window shades lowered and the door closed to minimize distractions. Fifteen clean marbles are evenly spaced on top of the bedding in three rows of five marbles. One mouse is placed in each cage. The mouse in the cage is left undisturbed for 30 minutes. At the end of the test, the mouse is removed and the number of marbles buried to at least ⅔ of their depth is counted.

C57 mice = conditions: mouse, in vivo
rats [4] = experiment: Pulmonary function in rats; format: in vivo; conditions: for RR: 60 minutes
[5] = male, Sprague-Dawley, rat, in vivo, sc, 0.3 mg/kg
[6] = rat, in vivo
male Sprague-Dawley rats = experiment: Rat tolerance/dependence study (28 day)

5-HT2A, sequence (P28223 whole entry): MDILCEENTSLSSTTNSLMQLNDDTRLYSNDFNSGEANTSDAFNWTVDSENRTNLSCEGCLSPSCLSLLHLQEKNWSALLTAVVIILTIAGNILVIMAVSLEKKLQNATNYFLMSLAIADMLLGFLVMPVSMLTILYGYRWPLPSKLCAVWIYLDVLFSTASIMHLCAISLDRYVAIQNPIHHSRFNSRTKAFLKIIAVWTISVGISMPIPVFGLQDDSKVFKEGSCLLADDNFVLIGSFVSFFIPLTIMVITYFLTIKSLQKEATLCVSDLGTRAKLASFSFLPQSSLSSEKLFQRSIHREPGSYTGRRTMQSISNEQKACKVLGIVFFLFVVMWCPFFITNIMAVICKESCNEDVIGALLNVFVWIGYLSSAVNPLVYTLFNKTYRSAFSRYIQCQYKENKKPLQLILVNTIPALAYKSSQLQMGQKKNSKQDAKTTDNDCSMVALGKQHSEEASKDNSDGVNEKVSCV
D2, sequence (P14416 1-414 isoform P14416-2): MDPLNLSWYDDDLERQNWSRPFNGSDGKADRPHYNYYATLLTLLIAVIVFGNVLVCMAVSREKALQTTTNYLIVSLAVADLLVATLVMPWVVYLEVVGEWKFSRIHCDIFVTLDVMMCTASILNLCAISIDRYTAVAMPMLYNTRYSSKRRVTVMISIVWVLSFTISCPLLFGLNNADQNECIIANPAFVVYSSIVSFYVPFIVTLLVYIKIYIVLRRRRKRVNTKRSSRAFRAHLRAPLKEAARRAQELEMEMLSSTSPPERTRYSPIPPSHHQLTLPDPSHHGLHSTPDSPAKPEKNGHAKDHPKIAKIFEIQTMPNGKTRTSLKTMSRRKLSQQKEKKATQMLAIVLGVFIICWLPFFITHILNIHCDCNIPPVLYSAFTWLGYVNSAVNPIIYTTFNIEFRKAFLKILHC
SERT, sequence (P31645 whole entry, species assumed): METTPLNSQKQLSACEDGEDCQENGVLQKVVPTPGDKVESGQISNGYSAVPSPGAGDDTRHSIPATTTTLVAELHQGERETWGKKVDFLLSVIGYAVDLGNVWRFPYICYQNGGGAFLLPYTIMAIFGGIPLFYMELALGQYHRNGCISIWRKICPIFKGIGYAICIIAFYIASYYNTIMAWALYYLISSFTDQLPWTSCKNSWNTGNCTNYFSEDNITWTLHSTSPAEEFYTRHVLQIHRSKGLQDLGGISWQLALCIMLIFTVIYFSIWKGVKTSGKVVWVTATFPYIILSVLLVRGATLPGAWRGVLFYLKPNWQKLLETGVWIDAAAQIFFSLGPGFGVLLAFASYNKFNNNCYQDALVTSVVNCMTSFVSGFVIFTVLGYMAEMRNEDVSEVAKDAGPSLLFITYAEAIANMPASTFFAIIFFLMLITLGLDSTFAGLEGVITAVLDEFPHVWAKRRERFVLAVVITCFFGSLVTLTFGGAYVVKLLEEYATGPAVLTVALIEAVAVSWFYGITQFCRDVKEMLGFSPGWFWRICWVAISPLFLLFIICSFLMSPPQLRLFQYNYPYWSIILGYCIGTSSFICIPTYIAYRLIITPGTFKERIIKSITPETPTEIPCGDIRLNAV
D1, sequence (P21728 whole entry): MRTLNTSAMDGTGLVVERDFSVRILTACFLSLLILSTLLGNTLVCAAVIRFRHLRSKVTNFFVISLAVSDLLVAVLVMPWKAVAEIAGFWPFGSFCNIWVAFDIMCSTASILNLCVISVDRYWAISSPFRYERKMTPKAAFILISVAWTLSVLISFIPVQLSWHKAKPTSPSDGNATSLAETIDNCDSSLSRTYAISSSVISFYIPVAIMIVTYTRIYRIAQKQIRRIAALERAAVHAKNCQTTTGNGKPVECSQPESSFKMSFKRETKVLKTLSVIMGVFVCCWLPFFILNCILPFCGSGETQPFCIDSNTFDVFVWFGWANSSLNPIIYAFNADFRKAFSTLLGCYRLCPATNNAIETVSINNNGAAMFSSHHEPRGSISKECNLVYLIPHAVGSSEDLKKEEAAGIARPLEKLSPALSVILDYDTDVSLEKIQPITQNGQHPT

## C=CCN1CC[C@]23c4c5ccc(O)c4O[C@H]2C(=O)CC[C@@]3(O)[C@H]1C5 [Naloxone, naloxone]
Male C57BL/6J mice
  Body Weight Loss: 0.5%
  Jumps: 0
  Paw Tremors: 0.87
  Total Number of Signs: 2.2

## CC(C)N1C(=O)CN2c3c(cccc31)[C@@H]1CN(CCCOc3ccc(F)cc3)CC[C@@H]12 [Example 22, (6bR,10aS)-8-(3-(4-fluorophenoxy)propyl)-3-isopropyl-6b,7,8,9,10,10a-hexa-hydro-1H-pyrido[3′,4′:4,5]pyrrolo[1,2,3-de]quinoxalin-2(3H)-one]
5-HT2A
  inhibition at 0.1 µM: 81%
D2
  inhibition at 0.1 µM: 39%
D1
  inhibition at 0.1 µM: 70%
SERT
  inhibition at 0.2 µM: 11%

## CN1CC[C@]23c4c5ccc(O)c4O[C@H]2[C@@H](O)C=C[C@H]3[C@H]1C5 [Morphine, morphine, reference compound]
Rats [1]; 5 mg/kg SC
  reduction in gastric motility: ~50%

## O=C1CN2c3c(cccc3[C@@H]3CN(CCCOc4ccc(F)cc4)CC[C@@H]32)N1 [Example 1, (6bR,10aS)-8-(3-(4-fluorophenoxy)propyl)-6b,7,8,9,10,10a-hexahydro-1H-pyrido[3′,4′:4,5]pyrrolo[1,2,3-de]quinoxalin-2(3H)-one]
[2]; 3 mg/kg, at 30 minutes or 60 minutes
  effect on tyrosine hydroxylase phosphorylation at Ser40: no significant effect
[3]
  effect on NR2B phosphorylation at Tyr1472: no significant effect
mice
  Marbles Buried: 9.3
C57 mice; po, 3 mg/kg
  Mean Behavior Rating (0-4): 0.9 and 0.8 and 1.5
C57 mice; sc, 1 mg/kg
  Mean Behavior Rating (0-4): 1.0 and 1.9 and 1.1
Rats [4]; 0.3 mg/kg SC
  RR: 181 breaths/min
Rats [4]; 1.0 mg/kg SC
  RR: 203 breaths/min
Rats [4]; 3.0 mg/kg SC
  RR: 190 breaths/min
Rats [4]; 0.3, 1.0 and 3.0 mg/kg SC, 0, 15, 60, 120, 240 minutes
  respiratory rate, tidal volume and minute volume vs vehicle: no significant differences
[5]
  peak plasma concentrations: 15 to 38 ng/mL
[6]; iv, 1 mg/kg
  Bioavailability: 100%
[6]; po, 10 mg/kg
  t-1/2: 3.1 h
[6]; sc, 3 mg/kg
  t-1/2: 9.5 h
Rats [1]; at a dose up to 3 mg/kg
  effect on gastrointestinal motility: no significant effect
Male Sprague-Dawley rats; 0.3 and 3 mg/kg
  physical dependence upon cessation of dosing: not to produce a syndrome of physical dependence
Male Sprague-Dawley rats; 0.3 and 3 mg/kg four times
  tolerance during subcutaneous dosing for 28 days: does not produce tolerance
Male Sprague-Dawley rats; 0.3 and 3 mg/kg s.c. four times per day, on-dose or withdrawal phase
  effect on animal body weight, food and water intake or body temperature: no significant effect
Male Sprague-Dawley rats; higher dose (3 mg/kg)
  main behavioral and physical signs: hunched posture, subdued behavior, Straub tail, tail rattle and piloerection
Male Sprague-Dawley rats; repeated administration at 0.3 mg/kg
  predominant behavioral and physical effects, dosing phase: hunched posture, Straub tail and piloerection

## O=C1CN2c3c(cccc3[C@@H]3CN(CCCOc4ccccc4F)CC[C@@H]32)N1 [Example 21, (6bR,10aS)-8-(3-(2-fluorophenoxy)propyl)-6b,7,8,9,10,10a-hexahydro-1H-pyrido[3′,4′:4,5]pyrrolo[1,2,3-de]quinoxalin-2(3H)-one]
5-HT2A
  inhibition at 0.1 µM: 88%
D2
  inhibition at 0.1 µM: 28%
D1
  inhibition at 0.1 µM: 18%
SERT
  inhibition at 0.2 µM: 5%

## O=C(CCCN1CCC(O)(c2ccc(Cl)cc2)CC1)c1ccc(F)cc1 [haloperidol]
[2]
  increase in TH phosphorylation: greater than 400%

## Cc1ccc(OCCCN2CC[C@H]3[C@@H](C2)c2cccc4c2N3CC(=O)N4)cc1 [Example 25, (6bR,10aS)-8-(3-(p-tolyloxy)propyl)-6b,7,8,9,10,10a-hexahydro-1H-pyrido-[3′,4′:4,5]pyrrolo[1,2,3-de]quinoxalin-2(3H)-one]
5-HT2A
  inhibition at 0.1 µM: 62%
D2
  inhibition at 0.1 µM: 21%
D1
  inhibition at 0.1 µM: 14%
SERT
  inhibition at 0.2 µM: 10%

## O=C1CN2c3c(cccc3[C@@H]3CN(CCCOc4ccc(I)cc4)CC[C@@H]32)N1 [Example 23, (6bR,10aS)-8-(3-(4-iodophenoxy)propyl)-6b,7,8,9,10,10a-hexahydro-1H-pyrido[3′,4′:4,5]pyrrolo[1,2,3-de]quinoxalin-2(3H)-one]
5-HT2A
  inhibition at 0.1 µM: 81%
D2
  inhibition at 0.1 µM: 14%
D1
  inhibition at 0.1 µM: 3%
SERT
  inhibition at 0.2 µM: 48%

## O=C1CN2c3c(cccc3[C@@H]3CN(CCCOc4ccc(Br)cc4)CC[C@@H]32)N1 [Example 24, (6bR,10aS)-8-(3-(4-bromophenoxy)propyl)-6b,7,8,9,10,10a-hexahydro-1H-pyrido[3′,4′:4,5]pyrrolo[1,2,3-de]quinoxalin-2(3H)-one]
5-HT2A
  inhibition at 0.1 µM: 72%
D2
  inhibition at 0.1 µM: 8%
D1
  inhibition at 0.1 µM: 3%
SERT
  inhibition at 0.2 µM: 44%

## O=C1CN2c3c(cccc3[C@@H]3CN(CCCOc4cccc(F)c4)CC[C@@H]32)N1 [Example 20, (6bR,10aS)-8-(3-(3-fluorophenoxy)propyl)-6b,7,8,9,10,10a-hexahydro-1H-pyrido[3′,4′:4,5]pyrrolo[1,2,3-de]quinoxalin-2(3H)-one]
5-HT2A
  inhibition at 0.1 µM: 79%
D2
  inhibition at 0.1 µM: 14%
D1
  inhibition at 0.1 µM: 32%
SERT
  inhibition at 0.2 µM: 8%

## O=C1CN2c3c(cccc3[C@@H]3CN(CCCc4n[nH]c5cc(F)ccc45)CC[C@@H]32)N1 [Example 2, (6bR,10aS)-8-(3-(6-fluoro-1H-indazol-3-yl)propyl)-6b,7,8,9,10,10a-hexahydro-1H-pyrido[3′,4′:4,5]pyrrolo[1,2,3-de]quinoxalin-2(3H)-one]
Rats [1]; 0.3 mg/kg SC
  Motility Ratio: 0.50
Rats [1]; 1 mg/kg SC
  Motility Ratio: 0.55
Rats [1]; 3 mg/kg SC
  Motility Ratio: 0.50

## Cc1nc2n(c(=O)c1CCN1CCC(c3noc4cc(F)ccc34)CC1)CCCC2 [risperidone]
[2]
  increase in TH phosphorylation: greater than 500%
